Results as given in US20080118990A1, “Assay For Lipoproteins Using Lumiphore K-37” (Science and Technology Facilities Council, priority 2004, published 2008).

Experiments:
LDL [1] = assay: Nile Red fluorescence in LDL with and without octanoate (Example 3); format: binding
HDL = assay: Nile Red fluorescence in HDL compared with VLDL and LDL at different excitation wavelengths (Example 6); set-up: species or system human
Method: Further optimisation of the assay according to the invention Further tests were performed on human serum samples to investigate optimum excitation wavelengths for inducing fluorescence indicative of HDL levels according to the method of the invention.
The inventors tested a number of wavelengths and have established that, when using Nile Red, that an excitation wavelength of 600 nm and an emission wavelength of 620 nm gives optimal results (see FIG. 15). The inventors were surprised that this excitation wavelength was optimal because it is to the very long wavelength edge of the spectrum.
For certain samples the inventors observed a noisier plot with an excitation wavelength of 460 nm and an emission wavelength of 620 nm (see FIG. 16).
The inventors believe that Nile Red is about 5 times more fluorescent in HDL than VLDL and LDL when excited at 600 nm as opposed to excitation at 460 nm where it is only about 2 times more fluorescent. This gives a better signal to noise when subtracting from the standard curve of LDL plus VLDL.

[2] = target: T1, Human Serum Albumin (HSA) (Homo sapiens, UniProt P02768); assay: Nile Red fluorescence with HSA with and without octanoate (Example 3); format: binding
LDL [3] = assay: K-37 fluorescence in LDL with and without octanoate (Example 2); format: binding
Method: The dye K-37 was added at a concentration of 0.5 mM to LDL at a total lipid concentration of 5 mM, in the presence and absence of 50 mg/ml HSA. Measurements were made with and without the addition of 0.1 M sodium octanoate, which acted as a ligand binding inhibitor.

[4] = target: T1, Human Serum Albumin (HSA); assay: K-37 fluorescence with HSA with and without octanoate, blocking of HSA (Example 2)
[5] = Quenching of Nile Red residual fluorescence in solution (Example 6); format: physicochemical
Excerpt: (§1) This lead the inventors to realise that the HDL/Nile red assay may be improved further by using an additional blocker. They tried agents that block the drug binding domain of HSA. […] The benzoic acid has the added bonus of quenching the Nile Red residual fluorescence in solution by about 20%.

[6] = target: drug binding domain of HSA (Homo sapiens, UniProt P02768); assay: Displacement of Nile Red from HSA by agents that block the drug binding domain (Example 6); details: agent at about 5 mM, without affecting the lipoprotein fluorescence
Excerpt: as §1

T1 sequence (P02768 25-609): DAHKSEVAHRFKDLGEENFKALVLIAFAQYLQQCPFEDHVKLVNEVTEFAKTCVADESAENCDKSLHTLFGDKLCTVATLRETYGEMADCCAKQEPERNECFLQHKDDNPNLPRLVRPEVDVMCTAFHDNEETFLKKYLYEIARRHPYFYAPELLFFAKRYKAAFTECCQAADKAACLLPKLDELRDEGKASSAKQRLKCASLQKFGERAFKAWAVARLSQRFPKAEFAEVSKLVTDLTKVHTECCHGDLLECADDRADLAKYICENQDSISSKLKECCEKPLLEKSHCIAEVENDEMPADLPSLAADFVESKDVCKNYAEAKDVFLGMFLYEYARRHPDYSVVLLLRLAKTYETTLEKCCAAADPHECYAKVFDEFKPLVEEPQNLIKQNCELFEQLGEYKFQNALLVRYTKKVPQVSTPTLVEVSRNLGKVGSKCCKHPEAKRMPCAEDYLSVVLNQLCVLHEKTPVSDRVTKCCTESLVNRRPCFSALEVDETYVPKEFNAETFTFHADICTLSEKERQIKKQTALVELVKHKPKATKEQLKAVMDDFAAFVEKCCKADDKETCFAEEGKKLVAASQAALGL
drug binding domain of HSA, sequence (P02768 25-609): as above

Structure (SMILES): CCN(CC)c1ccc2nc3c4ccccc4c(=O)cc-3oc2c1 [Nile Red]
- Fluorescence Intensity (LDL [1]; 0.5 mM Nile Red plus 5 mM LDL + 50 mM octanoate): 183.786 units
- Fluorescence Intensity (LDL [1]; 0.5 mM Nile Red plus 5 mM LDL, no octanoate): 187.532 units
- times more fluorescent in HDL than VLDL and LDL (HDL; excitation at 460 nm): about 2 times
- times more fluorescent in HDL than VLDL and LDL (HDL; excited at 600 nm): about 5 times
- Fluorescence Intensity ([2]; 0.5 mM Nile Red plus 50 mg/ml HSA + 50 mM octanoate): 9.118 units
- Fluorescence Intensity ([2]; 0.5 mM Nile Red plus 50 mg/ml HSA, no octanoate): 58.905 units

Structure (SMILES): CCCCCCCC(=O)[O-].[Na+] [octanoate, sodium octanoate]
- effect of octanoate on K-37 fluorescence in LDL (LDL [3]; 0.1 M sodium octanoate, 5 mM LDL, 0.5 mM K-37): little effect
- effect of octanoate on Nile Red fluorescence in LDL (LDL [1]; 50 mM octanoate, 5 mM LDL, 0.5 mM Nile Red): little effect

Structure (SMILES): CN(C)c1ccc(/C=C/C(=O)c2ccc(S(=O)(=O)C(F)F)cc2)cc1 [K-37, 4-dimethylamino-4′-difluoromethyl-sulphonyl-benzylidene-acetophenone]
- Fluorescence Intensity ([4]; 0.5 mM K-37 plus 50 mg/ml HSA + 0.1 M sodium octanoate): 3600 units
- Fluorescence Intensity ([4]; 0.5 mM K-37 plus 50 mg/ml HSA, no octanoate): 79300 units
- Fluorescence Intensity (LDL [3]; 0.5 mM K-37 plus 5 mM LDL + 0.1 M sodium octanoate): 209700 units
- Fluorescence Intensity (LDL [3]; 0.5 mM K-37 plus 5 mM LDL, no octanoate): 213500 units

Structure (SMILES): O=C(O)c1ccccc1 [benzoic acid]
- quenching of Nile Red residual fluorescence in solution [5]: about 20%
- displacement of Nile Red from HSA [6]: worked to displace the Nile Red from HSA
